# Data: patent publication US20220175675A1, “ENCAPSULATING MOLECULES IN FAT GLOBULES” (The Regents of the University of California, priority 2019, published 2022)
# Experiments:
# [1] = physchem
# Excerpt: One such molecular property that is used to predict partitioning potential is the octanol—water partition coefficient; Log P, which is the logarithm of the ratio of the solute concentration in the octanol phase to the solute concentration in the water phase, at a defined temperature.
# [2] = Encapsulation of hydrophobic compounds into milk fat globules (loading capacity, encapsulation efficiency); format: physicochemical, bovine; conditions: 10% v/v ethanol, 30 min
# Method: Raw milk was procured from a local market and stored at 4° C. Milk was used for up to 4 days post purchase. MFGs were separated from raw milk using centrifugal separation following a modified version of the method by Gallier et al. (2010) (12). First, raw milk was diluted with Milli-Q water at 9:1 water to milk, and the solution was centrifuged at 3,000×g for 5 min using a fixed angle centrifuge rotor. Cream was then skimmed off the sides of the centrifuged tubes after discarding the aqueous phase. In order to remove more of the milk serum components, cream was reconstituted in water to reach 4% w/v, and subjected to another step of centrifugation at 3,000×g for 5 min Cream was collected as detailed prior, then reconstituted to 20% w/v in Milli-Q water. All separation steps were completed at room temperature.
# Encapsulation of test compounds in MFGs was accomplished by mixing ethanolic stock solution of a compound with 20% w/v cream suspended in water. The mixture was gently inverted several times to mix, then allowed in incubate in the dark.
# To test the effect of incubation temperature on the partitioning and encapsulation yield and efficiency, RA was added at 250 μM concentration and was allowed to incubate with MFGs for 30 min at 4, 22, and 40° C.
# To quantify the amount of compound encapsulated in MFGs, cream was separated from ethanol-containing aqueous phase via centrifugal separation at 3,000 x g for 5 min. Cream was skimmed and added to methanol at 50 mg/mL and vortexed vigorously for 1 min, then centrifuged at 16,000×g for 10 min. Top layer of methanol was collected and absorbance was measured at appropriate wavelength for each compound. An absorbance blank was prepared following the same encapsulation and separation steps in the absence of compound. λmax in methanol (nm) for each compound is reported in Table 1.
# Cream (20% w/v in Milli-Q water) that was separated following the steps in Example 2 was further separated via centrifugation at 3,000×g for 5 min. Fat content in cream was measured using a modified Folch method (13). An additional washing step was incorporated where the chloroform/water interface was washed with 1:1 water/methanol solution.
# [3] = Gastric stability of vitamin D3 in simulated gastric fluid (LC-MS); format: in vitro ADME; conditions: 2 h, 37° C., pH 3, pepsin
# Method: Degradation of VD3 under the simulated gastric conditions was performed on free VD3 and encapsulated VD3. The simulated gastric fluid (SGF) was prepared according to the method of Minekus et al. (2014). In summary, electrolyte solution was prepared in Milli-Q water at 1.25× of the final concentration and stored at 37° C. To prepare 10 mL solution to be used in the digestion procedure: 7.5 mL SGF, 6 mg pepsin solubilized in 1.6 mL SGF, 5 μL of 0.3 M CaCl2(H2O)2 prepared in water and filtered through a 0.22 μm PSE syringe filter. The pH value was corrected to reach 3, and if needed, water was added to reach 10mL (approximately […]). The solution was then placed in a 37° C. incubator to equilibrate. Cream separated at the end of the incubation period with VD3 was suspended in water at 8% w/v and allowed to briefly incubate at 37° C.
# The separated cream (250 mg) containing VD3, obtained as described before, was added to 5 mL of SGF. For the digestion of free VD3 in methanol, 25 μL of 40 mg/mL solution was added to […] of SGF. Solutions were briefly purged with nitrogen and sealed securely. Simulated digestion was carried for 2h at 37° C. At the end of the incubation step, ethanolic pyrogallol solution (10 mL, 1% w/v) was added and vortexed vigorously. Potassium hydroxide (2 mL, 50%w/v) was then added and mixed. […]
smiles,measurement,setting,value
C=C1CC[C@H](O)C/C1=C/C=C1\CCC[C@]2(C)[C@@H]([C@H](C)CCCC(C)C)CC[C@@H]12 [Cholecalciferol],logP,[1],~7.5
same,% Encapsulation efficiency,"[2]; 50 μM added compound, room temperature",68.60 ± 6.30%
same,% Encapsulation efficiency,"[2]; 100 μM added compound, room temperature",69.58 ± 6.44%
same,% Encapsulation efficiency,"[2]; 150 μM added compound, room temperature",67.62 ± 3.67%
same,% Encapsulation efficiency,"[2]; 200 μM added compound, room temperature",63.59 ± 1.43%
same,% Encapsulation efficiency,"[2]; 250 μM added compound, room temperature",49.84 ± 3.74 %
same,% Encapsulation efficiency,"[2]; 500 μM added compound, room temperature",45.25 ± 3.00 %
same,% Encapsulation efficiency,"[2]; 1000 μM added compound, room temperature",24.77 ± 0.84 %
same,% Encapsulation efficiency,"[2]; 1500 μM added compound, room temperature",28.92 ± 3.43 %
same,% Encapsulation efficiency,"[2]; 2000 μM added compound, room temperature",19.66 ± 1.05 %
same,% Encapsulation efficiency,"[2]; 2500 μM added compound, room temperature",19.22 ± 2.88 %
same,maximal loading capacity (LC),"[2]; maximal value over 50-2500 μM, room temperature",22.12 μg per gram of milk fat
same,"encapsulation efficiency (EE %), maximal/overall value",[2]; over tested concentrations,69%
same,degradation/loss of VD3 in simulated gastric fluid,[3]; listed as free VD3,approximately 6%
same,degradation/loss of VD3 in simulated gastric fluid,[3]; listed as un-encapsulated VD3,approximately 8%
